Test results reported in patent US20200338045A1, “ISOINDOLINE COMPOSITIONS AND METHODS FOR TREATING NEURODEGENERATIVE DISEASE” (priority 2017, published 2020).

System: CSF proteins
Assay: LC/MSMS protein expression in CSF (COG0102)
Assay type: in vivo, human
Procedure: Plasma and CSF protein expression were measured by LC/MSMS in samples drawn prior to dosing (Day 0) and at end of dosing (Day 28) and were compared within each patient and between dosing groups.
This trial (ClinicalTrials.gov NCT02907567) was a randomized, double-blind, placebo-controlled clinical trial in mild to moderate Alzheimer's patients (MMSE 18-26) (See FIG. 1 for clinical trial design). The trial was conducted at six sites in Australia. Patients were randomized into placebo (n=5) or CT1812-treated groups: 90 mg (n=4), 280 mg (n=5) or 560 mg (n=5) and treated once daily for 28 days. Clinical chemistry was done at Sydpath (Sydney, AU). Pharmacokinetics were done at CPR Pharma Services (Adelaide, AU). Cerebrospinal fluid samples were taken at screening and day 21-28 of treatment and aliquoted. Plasma samples were taken at screening or Day 1 (one sample) and day 14-28, then spun down to separate plasma and aliquoted. One set of CSF samples was analyzed for Alzheimer's disease biomarkers; protein measurements (Aβ42, A1340, total tau, tau phosphorylated at threonine 181 (phosphorylated tau), NFL and neurogranin) were performed using commercially available ELISA assays from Fujirebio according to the manufacturer's instructions (INNOTEST β-AMYLOID(1-42), INNOTEST β-AMYLOID(1-40), INNOTEST hTau Ag, INNOTEST PHOSPHO-TAU(181P), Uman Diagnostics NFL assay). Neurogranin was measured with a sandwich ELISA method using antibodies Ng2 and Ng22 developed at the University of Gotteborg (Kvartsberg et al. 2015). Identical aliquots of CSF, and plasma were analyzed for protein expression changes via LC/MSMS at Caprion (see below).
Matched screening and day 28 plasma and CSF samples were analyzed by LC/MSMS at Caprion Biosciences Inc. Plasma was depleted of high and medium abundance proteins using a commercial immunoaffinity column, IgY14-Supermix (Sigma). CSF was depleted of only 14 high abundance proteins using MARS-14 (Agilent). All samples were digested with trypsin and plasma samples were fractionated by strong cation exchange chromatography (3 fractions). Both CSF and plasma samples were analyzed using a NanoAcquity UPLC coupled to a Q Exactive MS. […] The 12 most intense peaks per survey scan with charge states 2-8 fragmented and scanned with a mass range from 200 to 2000 m/z at a resolution of 17,500. Raw spectrometer data files for each LC-MS run were aligned independently using Elucidator software (Rosetta Biosoftware). The MS/MS spectra were matched to corresponding peptide sequences found in the Uniprot Human protein database (January 2017) using Mascot software, allowing for up to 2 missed cleavages, a peptide tolerance of 20 ppm, and an MS/MS tolerance of 0.05 Da. Outlier detection was performed by determining the average log-intensity of all isotope groups (IG) over injection order for all samples. Samples with an average value greater than 2 standard deviations from the mean were flagged for investigation. Following data transformation and normalization, expression analysis of the identified isotope groups was performed and the statistical significance of each comparison was assessed with a parametric, linear mixed model (LMM) and a non-parametric Wilcoxon ranked test (ranked p-values). Expression analysis was also performed at the peptide and protein levels, which used the same methodology as above, but applied to peptide/protein intensities, derived by rolling-up the corresponding isotope group intensities. Isotope groups not detected in at least half of the samples in either of the two groups being compared were not used for the roll-up.
Table 5 lists 30 proteins that were detected with at least 20% change in placebo vs. treated 28 days vs screening. The following values are reported for each statistical analysis performed: FC: Fold change calculated from the protein normalized intensity. FC>10 or <0.1 are unusually large and may be artifacts. […]

[1] = 28 days vs screening, fold change

In the case of `CC(C)(C)Oc1cc(CCC(C)(C)N2Cc3ccc(S(C)(=O)=O)cc3C2)ccc1O` [CT1812], the “Afamin, % change treated vs placebo” value is reported as −19%, the “B3GNT9, % change treated vs placebo” value is reported as 65% and the “CD14, % change treated vs placebo” value is reported as 20%. The “Contactin 1, % change treated vs placebo” value was −23%, the “EphA4, % change treated vs placebo” value was −7% and the “FLNA, % change treated vs placebo” value was −51%. For the same compound, the “PDIA1, % change treated vs placebo” value was 21%, the “PDIA6, % change treated vs placebo” value was 44% and the “ROBO4, % change treated vs placebo” value was 62%. For the same compound, the “SERPINA4, % change treated vs placebo” value was −26%, the “Synaptotagmin, % change treated vs placebo” value was −59% and the “Tenascin C, % change treated vs placebo” value was −10%. For the same compound, the “Synaptotagmin-1 expression decreased, CT1812-treated vs. placebo” value (28 days) was 63%, the “AFM, FC (Treated)” value [1] was 0.94 and the “ANGPTL2, FC (Treated)” value [1] was 0.80. The “CAMK2D, FC (Treated)” value [1] was 1.04, the “CD14, FC (Treated)” value [1] was 1.18 and the “CNTN1, FC (Treated)” value [1] was 0.97. The “EFNB1, FC (Treated)” value [1] was 0.97, the “EPHA4, FC (Treated)” value [1] was 0.94 and the “FGFR3, FC (Treated)” value [1] was 1.12. The “GMFB, FC (Treated)” value [1] was 1.04, the “GNPTG, FC (Treated)” value [1] was 1.18 and the “HLA-H, FC (Treated)” value [1] was 1.22. For the same compound, the “ICAM2, FC (Treated)” value [1] was 1.11, the “LILRB4, FC (Treated)” value [1] was 1.11 and the “MBL2, FC (Treated)” value [1] was 0.75. For the same compound, the “MDGA2, FC (Treated)” value [1] was 1.01, the “NPPC, FC (Treated)” value [1] was 0.90 and the “P4HB, FC (Treated)” value [1] was 1.10. For the same compound, the “PDGFA, FC (Treated)” value [1] was 1.15, the “PDIA6, FC (Treated)” value [1] was 1.15 and the “RBP4, FC (Treated)” value [1] was 0.82. The “ROBO1, FC (Treated)” value [1] was 0.96, the “ROBO4, FC (Treated)” value [1] was 1.22 and the “SAA4, FC (Treated)” value [1] was 1.17. The “SEMA3F, FC (Treated)” value [1] was 1.40, the “SERPINA4, FC (Treated)” value [1] was 0.88 and the “SMPDL3B, FC (Treated)” value [1] was 0.97. The “SYT1, FC (Treated)” value [1] was 0.78, the “TNC, FC (Treated)” value [1] was 1.04 and the “TPI1, FC (Treated)” value [1] was 0.90. For the same compound, the “YWHAB, FC (Treated)” value [1] was 0.90, the “AFM, FC (Treated vs. Placebo)” value (28 days, fold change) was 0.84 and the “ANGPTL2, FC (Treated vs. Placebo)” value (28 days, fold change) was 0.69. For the same compound, the “CAMK2D, FC (Treated vs. Placebo)” value (28 days, fold change) was 1.22, the “CD14, FC (Treated vs. Placebo)” value (28 days, fold change) was 1.20 and the “CNTN1, FC (Treated vs. Placebo)” value (28 days, fold change) was 0.81. For the same compound, the “EFNB1, FC (Treated vs. Placebo)” value (28 days, fold change) was 0.93, the “EPHA4, FC (Treated vs. Placebo)” value (28 days, fold change) was 0.93 and the “FGFR3, FC (Treated vs. Placebo)” value (28 days, fold change) was 1.83. For the same compound, the “GMFB, FC (Treated vs. Placebo)” value (28 days, fold change) was 1.41, the “GNPTG, FC (Treated vs. Placebo)” value (28 days, fold change) was 1.26 and the “HLA-H, FC (Treated vs. Placebo)” value (28 days, fold change) was 1.37. For the same compound, the “ICAM2, FC (Treated vs. Placebo)” value (28 days, fold change) was 1.23, the “LILRB4, FC (Treated vs. Placebo)” value (28 days, fold change) was 1.25 and the “MDGA2, FC (Treated vs. Placebo)” value (28 days, fold change) was 0.71. The “NPPC, FC (Treated vs. Placebo)” value (28 days, fold change) was 0.91, the “P4HB, FC (Treated vs. Placebo)” value (28 days, fold change) was 1.21 and the “PDGFA, FC (Treated vs. Placebo)” value (28 days, fold change) was 1.27. The “PDIA6, FC (Treated vs. Placebo)” value (28 days, fold change) was 1.44, the “RBP4, FC (Treated vs. Placebo)” value (28 days, fold change) was 0.81 and the “ROBO1, FC (Treated vs. Placebo)” value (28 days, fold change) was 0.82. The “ROBO4, FC (Treated vs. Placebo)” value (28 days, fold change) was 1.62, the “SAA4, FC (Treated vs. Placebo)” value (28 days, fold change) was 1.35 and the “SEMA3F, FC (Treated vs. Placebo)” value (28 days, fold change) was 1.58. For the same compound, the “SERPINA4, FC (Treated vs. Placebo)” value (28 days, fold change) was 0.79, the “SMPDL3B, FC (Treated vs. Placebo)” value (28 days, fold change) was 1.24 and the “SYT1, FC (Treated vs. Placebo)” value (28 days, fold change) was 0.63. For the same compound, the “TNC, FC (Treated vs. Placebo)” value (28 days, fold change) was 0.91, the “TPI1, FC (Treated vs. Placebo)” value (28 days, fold change) was 0.87 and the “YWHAB, FC (Treated vs. Placebo)” value (28 days, fold change) was 0.81. For the same compound, the “MBL2, FC (Treated vs. Placebo)” value (28 days, fold change, FC>10 may be artifacts) was greater than 10, the “Afamin, With CT1812” value (direction of change) was “significantly decreased and ↓*” and the “B3GNT9, With CT1812” value (direction of change) was “dose dependently increased and ↑”. The “CD14, With CT1812” value (direction of change) was “significantly increased and ↑*”, the “Contactin 1, With CT1812” value (direction of change) was “significantly reduced and ↓*” and the “EphA4, With CT1812” value (direction of change) was “↓*”. The “FLNA, With CT1812” value (direction of change) was “trend for reduction and ↓”, the “PDIA1, With CT1812” value (direction of change) was “significantly increased and ↑*” and the “PDIA6, With CT1812” value (direction of change) was “significantly increased and ↑*”. For the same compound, the “ROBO4, With CT1812” value (direction of change) was “↑*”, the “SERPINA4, With CT1812” value (direction of change) was “significantly reduced and ↓*” and the “Synaptotagmin, With CT1812” value (direction of change) was “significantly decreased and reduction and decreased and ↓*”. For the same compound, the “Tenascin C, With CT1812” value (direction of change) was “↓*”, the “Afamin, % change baseline treated” value (treated group vs baseline) was −7% and the “B3GNT9, % change baseline treated” value (treated group vs baseline) was 55%. For the same compound, the “CD14, % change baseline treated” value (treated group vs baseline) was 18%, the “Contactin 1, % change baseline treated” value (treated group vs baseline) was −3% and the “EphA4, % change baseline treated” value (treated group vs baseline) was −6%. The “FLNA, % change baseline treated” value (treated group vs baseline) was −26%, the “PDIA1, % change baseline treated” value (treated group vs baseline) was 10% and the “PDIA6, % change baseline treated” value (treated group vs baseline) was 15%. For the same compound, the “ROBO4, % change baseline treated” value (treated group vs baseline) was 22%, the “SERPINA4, % change baseline treated” value (treated group vs baseline) was −13% and the “Synaptotagmin, % change baseline treated” value (treated group vs baseline) was −28%. For the same compound, the “Tenascin C, % change baseline treated” value (treated group vs baseline) was 4%.
